Measurements: patent US12644045B2, “Fluorescent compounds and application thereof” (The Hong Kong University of Science and Technology, priority 2020, dated 2026)

What was measured:
[1] = Photophysical properties (PL emission, quantum yield, AIE); format: physicochemical; conditions: for aggregation induced emission (AIE): THF/water mixtures with increasing water fraction
Experimental: FIG. 16A Normalized absorption and PL spectra of TBSM in THF solution (c=10^−5 M) and FIG. 16B Normalized absorption and PL spectra of TBSM in solid state. λex=460 nm.
FIG. 17A PL spectra of TBSM in water/THF mixtures with different water fractions (fw); FIG. 17B Plots of relative PL intensity (αAIE=I/I0, I0=PL intensity in pure THF at 672 nm) vs fw. c=10 μM, λex=460 nm. Insert: the fluorescence pictures of the mixture with fw=50% and 95%.
FIG. 23A Absorption spectra of TBSMCN in THF (c=10^−5 mol/L) and as film. FIG. 23B PL spectra of TBSMCN in THF (c=10^−5 mol/L) and as film, λex=530 nm.
FIG. 24A PL spectra of TBSMCN in H2O/THF mixtures with different water fractions (fw). Concentration: 10^−5 M; λex=530 nm. FIG. 24B Plots of relative emission intensity (I/I0) versus the composition of the mixture, where I0=PL intensity in pure THF at λem=810 nm.
UV spectrum FIG. 27A and PL spectrum FIG. 27B of TBSMPy in film state. λex=560 nm.
UV spectrum FIG. 28A and PL spectrum FIG. 28B of TBSMDPy in film state. λex=580 nm.
The photophysical properties of TBSM were first examined. […] TBSM gave a much brighter red emission in toluene solution with an emission wavelength at 605 nm and a QY of 67.9%. While in THF solution, the emission wavelength red-shifted to 669 nm with a QY of 4.1%.
We then investigated the luminescence behavior of TBSM in the mixture of THF and water to see whether it is AIE-active. When adding water into the THF solution, the photoluminescence (PL) intensity decreased with the water fraction (fw) in a range of 0-50%. In this case, the TICT effect dominated the photophysical process and reduced the emission intensity. When the fw exceeded 50%, the TBSM molecule began to aggregate and made the local microenvironment less polar. Therefore, the conformation rigidification became dominated and reversed the PL intensity from weak to strong.
To gain an insight to the details of the photophyscial properties of TBSM, we analyzed its crystal structure. TBSM molecules also show bright emission in the solid state since the locked nonplanar conformation can avoid the strong intermolecular π-π interactions. Indeed, no strong intermolecular π-π stacking has been observed in the crystal packing of TBSM. However, multiple intermolecular non-covalent interactions such as S . . . π, C≡N . . . π, C—H . . . N, C—H . . . S, and intermolecular hydrogen bonding interactions were observed which helps lock the solid-state molecular motion.
The photophysical properties of TBSMCN were investigated. […] In the film, the ICT peak further red shifted to 580 nm. […] TBSMCN was also AIE-active, showing increased PL emission intensity in the mixture of THF and water as the water fraction increased (FIG. 24A and FIG. 24B).
The photophysical properties of TBSMPy and TBSMDPy were studied. In the film state, they had absorption peaks around 400 nm and 580 nm. The emission peaks were at 750 nm with high QY of 16.3% and 25.0% for TBSMPy and TBSMDPy, respectively (FIGS. 27 and 28).

[2] = test system: lipid droplets (LDs) in Hela cells; test: Co-localization with BODIPY 493/503 in live Hela cells (confocal imaging); format: cell-based; conditions: 2 μM TBSM 1 h, co-stained with BODIPY 493/503
Experimental: FIG. 19 Confocal fluorescent images of live HeLa cell stained with 2 μM TBSM (1 h) and 1 μg/mL BODIPY (1 h). TBSM: λex=488 nm, λem=550-650 nm; BODIPY: λex=488 nm, λem=490-535 nm. Scale bar=20 μm. The number on the figure is colocalization coefficient.
To confirm the specificity of the TBSM for LDs imaging, the co-localization experiments were then carried out by incubating Hela cells with TBSM and BODIPY 493/503, a commercial dye for LDs.

[3] = test system: LDs in the yolk sac of zebrafish embryos; test: In vivo zebrafish embryo imaging; conditions: 3-day-old zebrafish embryos, stained for 30 min
Experimental: FIG. 22 In vivo zebrafish embryo imaging stained with TBSM (1 μM, […]), λex=488 nm, λem=550-650 nm. The right is the enlarged part of white frame in the left.
Yolk sac as a neutral lipid and polar phospholipids storage organ provides energy for the upgrowth of zebrafish. Intense red fluorescence signals originating from the yolk sac in 3-day-old zebrafish embryos were observed after stained with TBSM for 30 min (FIG. 22).

[4] = test system: A549 and Hela cells; test: Live cell staining of A549 and Hela cells; format: cell-based; conditions: 2 μM, 1 h
[5] = test system: LDs of liver tissues of mice; test: Ex vivo co-staining with BODIPY in high-fat feeding mice liver tissue; conditions: TBSM 2 μM 1 h, BODIPY 2 μM 1 h
Experimental: FIG. 20 Co-stained ex vivo confocal one-photon (λex=488 nm) images TBSM (2 μM, 1 h) and BODIPY (2 μM, 1 h) in high-fat feeding mice liver tissue. TBSM: λex=488 nm, λem=550-650 nm; BODIPY: μex=488 nm, λem=490-535 nm. Scale bar: 10 μm. The number on the picture is colocalization coefficient.

In the case of `N#CC(C#N)=C1Sc2c(c(-c3ccc(N(c4ccccc4)c4ccccc4)cc3)c3nsnc3c2C#N)S1` [TBSMCN], the “aggregation induced emission (AIE)” value [1] is reported as “AIE-active” and the QY ([1]; film state) is reported as “about 10%”.
With `N#CC(C#N)=C1Sc2c(c(-c3ccc(N(c4ccccc4)c4ccccc4)cc3)c3nsnc3c2C#Cc2cc(C#Cc3cccnc3)cc(C#Cc3cccnc3)c2)S1` [TBSMDPy] the QY ([1]; film state) was 25.0% and the emission peak ([1]; film state) was 750 nm.
Compound `N#CC(C#N)=C1Sc2c(c(-c3ccc(N(c4ccccc4)c4ccccc4)cc3)c3nsnc3c2C#Cc2ccncc2)S1` [TBSMPy] has a QY ([1]; film state) of 16.3% and an emission peak ([1]; film state) of 750 nm.
For `N#CC(C#N)=C1Sc2c(F)c(-c3ccc(N(c4ccccc4)c4ccccc4)cc3)c3nsnc3c2S1` [TBSM], the QY ([1]; THF solution) was 4.1%, the emission wavelength ([1]; THF solution) was 669 nm and the “aggregation induced emission (AIE)” value [1] was “exhibits typical AIE property”. The emission wavelength ([1]; solid) was 670 nm, the quantum yield ([1]; solid) was 13% and the QY ([1]; toluene solution) was 67.9%. The emission wavelength ([1]; toluene solution) was 605 nm, the co-localization coefficient [2] was 0.91 and the “specificity toward LDs in vivo” value [3] was “highly specific toward LDs”. For the same compound, the “permeability for living cells” value [4] was “fast permeability” and the co-localization coefficient [5] was 0.97.
